Laboratory results as given in patent US20240182495A1, “ANTIBACTERIAL COMPOUNDS” (JANSSEN SCIENCES IRELAND UNLIMITED COMPANY, priority 2021, published 2024).
Values after ≈ are worked out from the molar mass of the structure shown. Like-named read-outs stand apart in the source and are kept apart here.

Columns and labels:
[1] = LM Clint (microsomal stability), mouse; type: in vitro ADME
Description: (§1) The compounds of the invention/examples may have advantages associated with in vitro potency, kill kinetics (i.e. bactericidal effect) in vitro, PK properties, food effect, safety/toxicity (including liver toxicity, coagulation, 5-LO oxygenase), metabolic stability, Ames II negativity, MINT negativity, aqueous based solubility (and ability to formulate) and/or cardiovascular effect e.g. on animals (e.g. anesthetized guinea pig). Data that is generated/calculated may be obtained using standard methods/assays, for instance that are available in the literature or which may be performed by a supplier (e.g. Microsomal Stability Assay—Cyprotex, Mitochondrial toxicity (Glu/Gal) assay—Cyprotex, as well as literature CYP cocktail inhibition assays). GSH can be measured (reactive metabolites, […]) to observe if a dihydrodiol is observed by LCMS (fragmentation ions), which would correspond to a dihydroxylation on the core heterocycle.

physchem [2] = type: physicochemical
Description: as §1

hERG = hERG (Homo sapiens, UniProt Q12809); experiment: sync hERG; type: cell-based
hERG, sequence (Q12809 whole entry): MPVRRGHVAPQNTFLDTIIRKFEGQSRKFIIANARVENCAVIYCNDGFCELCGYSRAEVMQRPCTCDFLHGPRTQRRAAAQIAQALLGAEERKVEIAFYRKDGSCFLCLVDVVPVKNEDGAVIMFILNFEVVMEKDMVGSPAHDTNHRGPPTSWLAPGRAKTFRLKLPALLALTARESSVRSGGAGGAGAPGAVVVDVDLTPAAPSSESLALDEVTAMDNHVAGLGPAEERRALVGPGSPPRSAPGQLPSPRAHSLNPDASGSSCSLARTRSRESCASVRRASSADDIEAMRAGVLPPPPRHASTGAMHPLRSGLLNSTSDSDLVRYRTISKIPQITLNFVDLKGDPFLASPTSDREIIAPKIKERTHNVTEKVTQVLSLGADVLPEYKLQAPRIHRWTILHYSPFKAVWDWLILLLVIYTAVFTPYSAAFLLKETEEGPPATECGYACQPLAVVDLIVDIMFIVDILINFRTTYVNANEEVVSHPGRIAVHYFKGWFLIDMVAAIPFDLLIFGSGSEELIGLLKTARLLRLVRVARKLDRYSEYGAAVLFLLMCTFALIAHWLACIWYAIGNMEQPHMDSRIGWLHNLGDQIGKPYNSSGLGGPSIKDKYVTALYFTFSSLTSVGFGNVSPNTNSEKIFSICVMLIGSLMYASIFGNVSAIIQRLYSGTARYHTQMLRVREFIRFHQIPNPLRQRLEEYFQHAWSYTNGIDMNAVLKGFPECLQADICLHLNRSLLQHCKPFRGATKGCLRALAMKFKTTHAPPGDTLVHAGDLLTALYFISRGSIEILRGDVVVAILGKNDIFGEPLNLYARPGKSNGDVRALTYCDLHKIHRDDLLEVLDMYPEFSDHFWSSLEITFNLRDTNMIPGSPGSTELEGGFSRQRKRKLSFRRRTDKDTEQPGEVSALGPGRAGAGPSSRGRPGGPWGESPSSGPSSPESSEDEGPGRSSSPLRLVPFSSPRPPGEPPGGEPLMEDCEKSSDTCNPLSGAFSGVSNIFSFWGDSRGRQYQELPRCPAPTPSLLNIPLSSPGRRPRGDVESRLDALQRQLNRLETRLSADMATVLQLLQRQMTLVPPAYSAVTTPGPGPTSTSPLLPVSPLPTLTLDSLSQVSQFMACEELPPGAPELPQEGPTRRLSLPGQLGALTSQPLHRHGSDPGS

physchem [3] = experiment: physchem
2C8 = biological target: T1, 2C8 (Homo sapiens, UniProt P10632); experiment: CYP cocktail inhibition, 2C8; type: in vitro ADME; conditions: read-out: CYPS IC50 2C8
T1 sequence (P10632 1-490): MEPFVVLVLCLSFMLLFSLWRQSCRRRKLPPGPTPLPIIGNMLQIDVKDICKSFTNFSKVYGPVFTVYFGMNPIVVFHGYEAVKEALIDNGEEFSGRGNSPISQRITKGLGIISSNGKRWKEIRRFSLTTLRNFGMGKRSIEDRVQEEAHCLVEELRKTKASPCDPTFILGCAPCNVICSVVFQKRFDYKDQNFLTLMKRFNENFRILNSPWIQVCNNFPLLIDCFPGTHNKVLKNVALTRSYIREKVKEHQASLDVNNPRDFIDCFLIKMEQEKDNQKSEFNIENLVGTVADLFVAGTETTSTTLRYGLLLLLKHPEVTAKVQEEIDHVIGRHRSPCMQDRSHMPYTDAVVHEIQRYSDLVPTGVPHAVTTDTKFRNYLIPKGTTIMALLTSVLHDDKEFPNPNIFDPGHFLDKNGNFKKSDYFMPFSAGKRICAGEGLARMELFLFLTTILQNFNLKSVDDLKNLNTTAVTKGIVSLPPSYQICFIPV
Description: as §1

[4] = Chemical stability testing in DMSO, ACN/H2O, ACN/0.1N HCl, ACN/0.1N NaOH (% by LCMS); type: physicochemical
Procedure: Preliminary Protocol • Add 3 μl of a 10 mM DMSO stock solution to 1 ml of the following solvents in a 1.5 ml HPLC vial. • DMSO (reference solution) • H2O/Acetonitril 1/1 (assay solution) • 0.1N HCl/Acetonitril 1/1 (assay solution) • Mix well, […] LCMS • Compare the chromatograms of the two assay solutions with the reference solution and report the additional peaks as degradation peaks

[5] = Hep t1/2 (hepatocyte stability), mouse; conditions: hepatocytes
[6] = Mitochondrial toxicity (Glu/Gal) assay; type: cell-based; conditions: for Glu/Gal: Gal: galactose medium; for Glu/Gal: Glu: glucose medium
Description: as §1

[7] = tested on: CYPs (all isoforms, or the isoforms not named for that compound); experiment: CYP cocktail inhibition, all / other isoforms; type: in vitro ADME; conditions: read-out: CYPS IC50 (all / others)
Description: as §1

[8] = LM Clint (microsomal stability), human; type: in vitro ADME
Description: as §1

AMES II = conditions: score
Description: as §1

[9] = tested on: Mycobacterium tuberculosis strain (EH4.0, GFP-expressing; Test 2: H37Rv); experiment: MIC determination against M. tuberculosis, Test 1 (and/or Test 2); type: cell-based; conditions: Mycobacterium tuberculosis, H37RV, 168 h, 7 days incubation, fluorescence
MDCK = MDCK permeability / efflux; conditions: A to B with inhibitor
2C9 = 2C9 (Homo sapiens, UniProt P11712); experiment: CYP cocktail inhibition, 2C9; type: in vitro ADME; conditions: read-out: CYPS IC50 2C9
2C9, sequence (P11712 whole entry): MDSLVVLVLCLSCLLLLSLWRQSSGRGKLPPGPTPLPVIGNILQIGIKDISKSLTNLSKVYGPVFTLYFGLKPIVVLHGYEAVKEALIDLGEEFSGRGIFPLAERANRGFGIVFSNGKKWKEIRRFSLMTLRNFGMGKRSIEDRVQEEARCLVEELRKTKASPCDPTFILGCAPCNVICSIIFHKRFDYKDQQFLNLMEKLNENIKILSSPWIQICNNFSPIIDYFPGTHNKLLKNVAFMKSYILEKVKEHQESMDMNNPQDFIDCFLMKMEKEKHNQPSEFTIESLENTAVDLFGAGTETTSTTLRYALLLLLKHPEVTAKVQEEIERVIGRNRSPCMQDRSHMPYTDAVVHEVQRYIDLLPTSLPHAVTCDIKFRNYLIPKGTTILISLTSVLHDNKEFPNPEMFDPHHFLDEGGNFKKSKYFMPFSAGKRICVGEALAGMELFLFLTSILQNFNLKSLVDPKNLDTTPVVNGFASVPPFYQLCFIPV
Description: as §1

[10] = MDCK permeability / efflux; conditions: dog, MDCK
physchem [11] = type: physicochemical; conditions: for purity: 0.065 mg/mL in SGF with 20% ACN
in vitro [12] = conditions: human, plasma
in vitro [13] = conditions: mouse, plasma
M. tuberculosis H37Rv = conditions: strain H37Rv, inside macrophages; cited from earlier work
in vitro [14] = conditions: mouse, hepatocytes
2C19 = 2C19 (Homo sapiens, UniProt P33261); experiment: CYP cocktail inhibition, 2C19; type: in vitro ADME; conditions: read-out: CYPS IC50 2C19
2C19, sequence (P33261 whole entry): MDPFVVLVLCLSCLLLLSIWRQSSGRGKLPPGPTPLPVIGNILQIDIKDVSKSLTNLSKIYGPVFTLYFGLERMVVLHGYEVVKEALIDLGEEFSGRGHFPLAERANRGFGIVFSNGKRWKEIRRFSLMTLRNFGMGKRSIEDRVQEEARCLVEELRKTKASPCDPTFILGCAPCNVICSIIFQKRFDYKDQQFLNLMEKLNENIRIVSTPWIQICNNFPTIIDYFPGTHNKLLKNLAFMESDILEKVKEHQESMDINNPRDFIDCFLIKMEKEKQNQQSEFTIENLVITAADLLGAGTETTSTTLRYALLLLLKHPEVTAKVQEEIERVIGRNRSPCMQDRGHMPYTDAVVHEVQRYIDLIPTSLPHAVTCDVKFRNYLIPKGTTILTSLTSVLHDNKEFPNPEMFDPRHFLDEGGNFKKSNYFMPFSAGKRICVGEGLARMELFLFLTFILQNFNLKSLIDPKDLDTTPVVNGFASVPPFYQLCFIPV
Description: as §1

[15] = pH 2, simulated gastric fluid, thermodynamic from solid
[16] = h (human) liver microsomes, read-out: LM Clint
[17] = pH 7, aqueous buffer, thermodynamic from solid

Question: With `CCc1nc2ncc(C)cn2c1C(=O)NCc1ccc(-c2cc3n(n2)CCN(S(=O)(=O)C(F)(F)F)C3)c(F)c1` [Compound 82] as the compound, how does the microsomal CLint ([1]; m (mouse) liver microsomes, read-out: LM Clint) read?
Answer: 28 µL/min/mg

Question: What about the solubility thermodynamic (physchem [2]; [15]) of the same compound?
Answer: 12.3 µM (≈ 6.96 µg/mL)

Question: And the solubility thermodynamic (physchem [2]; pH 4, aqueous buffer)?
Answer: < 0.02 µM

Question: And the IC50 (hERG)?
Answer: 20.4 µM

Question: And the solubility (physchem [3]; fassif)?
Answer: 24.5 µM (≈ 13.9 µg/mL)

Question: And the solubility (physchem [3]; fessif)?
Answer: 8.8 µM (≈ 4.98 µg/mL)

Question: And the IC50 (2C8)?
Answer: 10.6 µM

Question: And the “chemical stability (% by LCMS)” value ([4]; 48 h, 30 μM)?
Answer: 100%

Question: What about the “chemical stability (% by LCMS)” value ([4]; 48 h, 30 μM, pH 1.6) of the same compound?
Answer: 100%

Question: What about the half-life [5] of the same compound?
Answer: 16.5 min

Question: What about the “Glu/Gal: Gal” value [6] of the same compound?
Answer: > 25

Question: What about the “Glu/Gal: Glu” value [6] of the same compound?
Answer: > 25

Question: What about the IC50 [7] of the same compound?
Answer: > 19.5 µM

Question: What about the microsomal CLint [8, 16] of the same compound?
Answer: 231 µL/min/mg

Question: And the “AMES II” value (AMES II)?
Answer: 1

Question: And the IC50 [9]?
Answer: 0.00282 µM

Question: What about the “MDCK AB+inh” value (MDCK) of the same compound?
Answer: 16.2

Question: Which IC50 (2C9) does the source give for `CCc1nc2ncc(C)cn2c1C(=O)NCc1ccc(-c2nc3n(n2)CCN(S(=O)(=O)C(F)(F)F)C3)c(F)c1` [Compound 7] here?
Answer: 15.5 µM

Question: And the solubility thermodynamic (physchem [2]; [15])?
Answer: 125 µM (≈ 70.8 µg/mL)

Question: And the solubility thermodynamic (physchem [2]; [17])?
Answer: 1.62 µM (≈ 0.918 µg/mL)

Question: And the IC50 (hERG)?
Answer: > 30 µM

Question: What about the “chemical stability (% by LCMS)” value ([4]; 72 h, 30 µM) of the same compound?
Answer: 100%

Question: And the “chemical stability (% by LCMS)” value ([4]; 72 h, 30 µM, pH 1.6)?
Answer: 100%

Question: And the “Glu/Gal: Gal” value [6]?
Answer: > 200

Question: What about the “Glu/Gal: Glu” value [6] of the same compound?
Answer: > 200

Question: And the IC50 ([7]; human)?
Answer: > 20 µM

Question: What about the microsomal CLint [8, 16] of the same compound?
Answer: 22.6 µL/min/mg

Question: And the IC50 [9]?
Answer: 0.00851 µM

Question: And the efflux ratio [10]?
Answer: 61.7

Question: What about the “MDCK AB+inh” value (MDCK) of the same compound?
Answer: 21.4

Question: With `CCc1nc2ncc(Cl)cn2c1C(=O)NCc1ccc(-c2nc3n(n2)CCN(S(=O)(=O)C(F)(F)F)C3)cc1` [Compound 2] as the compound, how does the purity (physchem [11]; at 0 hr) read?
Answer: 99.56%

Question: And the purity (physchem [11]; at 0.25 hr)?
Answer: 99.38%

Question: What about the purity (physchem [11]; at 0.5 hr) of the same compound?
Answer: 99.21%

Question: And the purity (physchem [11]; at 1 hr)?
Answer: 98.89%

Question: And the purity (physchem [11]; at 2 hr)?
Answer: 98.28%

Question: And the purity (physchem [11]; at 4 hr)?
Answer: 97.1%

Question: And the half-life at 0.065 mg/mL (physchem [11]; simulated gi fluid)?
Answer: 113 h

Question: And the solubility thermodynamic (physchem [2]; [15])?
Answer: 0.99 µM (≈ 0.563 µg/mL)

Question: And the solubility thermodynamic (physchem [2]; [17])?
Answer: < 0.13 µM

Question: What about the IC50 (hERG) of the same compound?
Answer: > 30 µM

Question: And the solubility (physchem [3]; fassif)?
Answer: < 5 µM

Question: And the solubility (physchem [3]; fessif)?
Answer: 24.4 µM (≈ 13.9 µg/mL)

Question: And the fraction unbound (in vitro [12])?
Answer: 0.0117

Question: And the “chemical stability (% by LCMS)” value ([4]; 72 h, 30 µM)?
Answer: 100%

Question: And the “chemical stability (% by LCMS)” value ([4]; 72 h, 30 µM, pH 1.6)?
Answer: 90.52%

Question: What about the “Glu/Gal: Gal” value [6] of the same compound?
Answer: > 100

Question: What about the “Glu/Gal: Glu” value [6] of the same compound?
Answer: > 100

Question: What about the IC50 [7] of the same compound?
Answer: > 20 µM

Question: And the fraction unbound (in vitro [13])?
Answer: 0.0054

Question: And the microsomal CLint [8, 16]?
Answer: 9.3 µL/min/mg

Question: What about the “AMES II” value (AMES II) of the same compound?
Answer: 1

Question: What about the IC50 [9] of the same compound?
Answer: 0.01 µM

Question: And the efflux ratio [10]?
Answer: 12.6

Question: What about the “MDCK AB+inh” value (MDCK) of the same compound?
Answer: 32.5

Question: For `CCc1nc2ccc(Cl)cn2c1C(=O)NCc1ccc(N2CCC(c3ccc(OC(F)(F)F)cc3)CC2)cc1` [Compound Q203], which MIC50 (M. tuberculosis H37Rv) is on record?
Answer: 0.00028 µM (≈ 0.000156 µg/mL)

Question: What does the source list for `CCc1nc2ccc(C)cn2c1C(=O)NCc1ccc(-c2cn3c(n2)CN(S(=O)(=O)C(F)(F)F)CC3)cc1` [Compound 79]?
Answer: IC50 (2C9): 17.7 µM; microsomal CLint ([1]; mouse, microsomes): 13.2 µL/min/mg; solubility thermodynamic (physchem [2]; [15]): 574 µM (≈ 314 µg/mL); solubility thermodynamic (physchem [2]; pH 4, aqueous buffer): 0.062 µM (≈ 0.0339 µg/mL); IC50 (hERG): 30.2 µM; half-life (in vitro [14]): 43.3 min; solubility (physchem [3]; fassif): 5.6 µM (≈ 3.06 µg/mL); solubility (physchem [3]; fessif): 29.3 µM (≈ 16 µg/mL); chemical stability (% by LCMS) ([4]; 0 h, 30 μM): 100%; chemical stability (% by LCMS) ([4]; 48 h, 30 μM): 100%; chemical stability (% by LCMS) ([4]; 48 h, 30 μM, pH 1.6): 100%; Glu/Gal: Gal [6]: > 200; Glu/Gal: Glu [6]: > 200; IC50 (2C19): 14.4 µM; IC50 ([7]; human): > 20 µM; microsomal CLint ([8]; human, microsomes): 39.8 µL/min/mg; AMES II (AMES II): 1; IC50 [9]: 0.00676 µM; MDCK AB+inh (MDCK): 42.7
